Measured values as given in publication PMC9445029, “A Cryptochrome adopts distinct moon- and sunlight states and functions as sun- versus moonlight interpreter in monthly oscillator entrainment” (Nature Communications, 2022).

Columns and labels:
[1] = molecular target: T1, L-Cry (Pdu-L-Cry) (Platynereis dumerilii, UniProt Z9ZPX6J9J5); assay: RP-HPLC of chromophore released from purified protein; UV/Vis spectroscopy; format: binding; conditions: co-purified from Sf9 cells; dark state oxidized FAD (maxima 450 and 475 nm), photoreduced to anionic radical; pH 8.0, 1 mM TCEP
T1 sequence (Z9ZPX6J9J5 1-565): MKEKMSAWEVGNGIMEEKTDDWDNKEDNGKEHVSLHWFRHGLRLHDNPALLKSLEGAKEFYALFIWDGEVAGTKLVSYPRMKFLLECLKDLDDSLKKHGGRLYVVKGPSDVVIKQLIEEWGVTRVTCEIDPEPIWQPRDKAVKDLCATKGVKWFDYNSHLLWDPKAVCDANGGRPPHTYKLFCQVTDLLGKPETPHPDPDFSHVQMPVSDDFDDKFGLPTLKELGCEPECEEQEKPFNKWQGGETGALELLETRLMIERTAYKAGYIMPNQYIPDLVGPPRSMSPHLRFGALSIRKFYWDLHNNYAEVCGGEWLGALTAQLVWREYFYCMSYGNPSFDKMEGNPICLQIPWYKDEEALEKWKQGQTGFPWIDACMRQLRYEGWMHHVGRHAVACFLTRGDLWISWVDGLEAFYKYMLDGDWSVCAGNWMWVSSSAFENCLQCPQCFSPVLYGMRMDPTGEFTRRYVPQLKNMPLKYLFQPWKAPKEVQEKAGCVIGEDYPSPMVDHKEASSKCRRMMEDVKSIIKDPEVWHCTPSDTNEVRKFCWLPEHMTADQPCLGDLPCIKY

[2] = molecular target: Platynereis dumerilii L-Cryptochrome (L-Cry), full length, N-terminally His6-tagged (1-567) (Platynereis dumerilii); assay: SEC-MALS; purified dark-state L-Cry on a Superose 6 10/300 column, 0.4 ml/min, SEC buffer 25 mM Bis-Tris propane pH 8.0, 150 mM NaCl; molar mass about 130 kDa against 65.6 kDa for the monomer

Cc1cc2nc3c(=O)[nH]c(=O)nc-3n(C[C@H](O)[C@H](O)[C@H](O)COP(=O)(O)OP(=O)(O)OC[C@H]3O[C@@H](n4cnc5c(N)ncnc54)[C@H](O)[C@@H]3O)c2cc1C [Flavin Adenine Dinucleotide]
RP-HPLC of chromophore released from purified protein; UV/Vis spectroscopy [1]: purified L-Cry binds Flavin Adenine Dinucleotide (FAD) as its chromophore

Platynereis dumerilii L-Cryptochrome (L-Cry), full length, N-terminally His6-tagged (1-567) (natural protein)
stoichiometry N [2]: 2
